Experimental data: patent US20140087945A1, “SUBSTITUTED 4-CYAN-3-(2,6-DIFLUOROPHENYL)-4-PHENYLBUTANOATES, METHOD FOR THE PRODUCTION THEREOF AND USE THEREOF AS HERBICIDES AND PLANT GROWTH REGULATORS” (Bayer Intellectual Property GmbH, priority 2011, published 2014)

Experiments:
[1] = tested on: a plurality of harmful plants; assay: Herbicidal post-emergence action, greenhouse pot test; format: in vivo; details: post-emergence method
Protocol: Seeds of monocotyledonous and dicotyledonous weed and crop plants are placed in sandy loam in wood-fiber pots, covered with soil and cultivated in a greenhouse under good growth conditions. 2 to 3 weeks after sowing, the test plants are treated at the one-leaf stage, where the compounds (I) according to the invention, formulated in the form of wettable powders (WP), are applied by spraying as aqueous suspension or emulsion at a water application rate of 600 l/ha (converted) with the addition of 0.2% of wetting agent to the green parts of the plants. After the test plants have been kept in the greenhouse under optimum growth conditions for about 3 weeks, the activity of the preparations is rated visually in comparison to untreated controls in percent (%): For example, 100% activity=the plants have died, 50% herbicidal activity or damage=the plants have been reduced by 50% or the plant mass has been reduced by 50%, 0% activity=like control plants.

[2] = tested on: a plurality of harmful plants; assay: Herbicidal pre-emergence action, greenhouse pot test; format: in vivo; details: pre-emergence method; application rate of 320 g or less of active substance per hectare
Description: Seeds of monocotyledonous and dicotyledonous weed plants and crop plants are placed in wood-fiber pots in sandy loam and covered with soil. The compounds (I) according to the invention, formulated in the form of wettable powders (WP), are then applied as aqueous suspension or emulsion at a water application rate of 600 l/ha (converted) with the addition of 0.2% of wetting agent to the surface of the covering soil. After the treatment, the pots are placed in a greenhouse and kept under good growth conditions for the test plants. After about 3 weeks, the effect of the preparations is scored visually in comparison with untreated controls as percentages. For example, 100% activity=the plants have died, 50% herbicidal activity or damage=the plants have been reduced by 50% or the plant mass has been reduced by 50%, 0% activity=like control plants.

## COC(=O)CC(c1c(F)cccc1F)C(C#N)c1ccc(F)cc1 (mixture of isomers) [Example 1-3]
[1]
  herbicidal activity against a plurality of harmful plants: good herbicidal activity
[2]
  herbicidal activity against a plurality of harmful plants: good herbicidal activity

## COC(=O)CC(c1c(F)cccc1F)C(C#N)c1ccc(Cl)cc1 (mixture of isomers) [Example 1-6]
[1]
  herbicidal activity against a plurality of harmful plants: good herbicidal activity
[2]
  herbicidal activity against a plurality of harmful plants: good herbicidal activity

## COC(=O)CC(c1c(F)cccc1F)C(C#N)c1cc(F)cc(F)c1 (mixture of isomers) [Example 1-12]
[1]
  herbicidal activity against a plurality of harmful plants: good herbicidal activity
[2]
  herbicidal activity against a plurality of harmful plants: good herbicidal activity

## COC(=O)CC(c1c(F)cccc1F)C(C#N)c1ccc(F)c(Cl)c1 (mixture of isomers) [Example 1-15]
[1]
  herbicidal activity against a plurality of harmful plants: good herbicidal activity
[2]
  herbicidal activity against a plurality of harmful plants: good herbicidal activity

## COC(=O)CC(c1c(F)cccc1F)C(C#N)c1ccc(Cl)c(Cl)c1 (mixture of isomers) [Example 1-16]
[1]
  herbicidal activity against a plurality of harmful plants: good herbicidal activity
[2]
  herbicidal activity against a plurality of harmful plants: good herbicidal activity

## COC(=O)CC(c1c(F)cccc1F)C(C#N)c1cccc(I)c1 (mixture of isomers) [Example 1-19]
[1]
  herbicidal activity against a plurality of harmful plants: good herbicidal activity
[2]
  herbicidal activity against a plurality of harmful plants: good herbicidal activity

## COC(=O)CC(c1c(F)cccc1F)C(C#N)c1ccccc1OC (mixture of isomers) [Example 1-24]
[1]
  herbicidal activity against a plurality of harmful plants: good herbicidal activity
[2]
  herbicidal activity against a plurality of harmful plants: good herbicidal activity

## COC(=O)CC(c1c(F)cccc1F)C(C#N)c1ccc(OC)cc1 (mixture of isomers) [Example 1-26]
[1]
  herbicidal activity against a plurality of harmful plants: good herbicidal activity
[2]
  herbicidal activity against a plurality of harmful plants: good herbicidal activity

## COC(=O)CC(c1c(F)cccc1F)C(C#N)c1ccc(OC)c(OC)c1 (mixture of isomers) [Example 1-27]
[1]
  herbicidal activity against a plurality of harmful plants: good herbicidal activity
[2]
  herbicidal activity against a plurality of harmful plants: good herbicidal activity

## COC(=O)CC(c1c(F)cccc1F)C(C#N)c1ccc(OC)c(F)c1 (mixture of isomers) [Example 1-28]
[1]
  herbicidal activity against a plurality of harmful plants: good herbicidal activity
[2]
  herbicidal activity against a plurality of harmful plants: good herbicidal activity

## COC(=O)CC(c1c(F)cccc1F)C(C#N)c1ccc(C(F)(F)F)c(F)c1 (mixture of isomers) [Example 1-29]
[1]
  herbicidal activity against a plurality of harmful plants: good herbicidal activity
[2]
  herbicidal activity against a plurality of harmful plants: good herbicidal activity

## COC(=O)CC(c1c(F)cccc1F)C(C#N)c1cc(F)cc(C(F)(F)F)c1 (mixture of isomers) [Example 1-30]
[1]
  herbicidal activity against a plurality of harmful plants: good herbicidal activity
[2]
  herbicidal activity against a plurality of harmful plants: good herbicidal activity

## N#CC(c1cc(F)cc(C(F)(F)F)c1)C(CC(=O)O)c1c(F)cccc1F (mixture of isomers) [Example 1-228]
[1]
  herbicidal activity against a plurality of harmful plants: good herbicidal activity
[2]
  herbicidal activity against a plurality of harmful plants: good herbicidal activity

## COC(=O)CC(c1c(F)cccc1F)C(C#N)c1ccc(F)c(Br)c1 (mixture of isomers) [Example 1-232]
[1]
  herbicidal activity against a plurality of harmful plants: good herbicidal activity
[2]
  herbicidal activity against a plurality of harmful plants: good herbicidal activity

## COC(=O)CC(c1c(F)cccc1F)C(C#N)c1ccc(F)c(C#N)c1 (mixture of isomers) [Example 1-233]
[1]
  herbicidal activity against a plurality of harmful plants: good herbicidal activity
[2]
  herbicidal activity against a plurality of harmful plants: good herbicidal activity

## COC(=O)CC(c1c(F)cccc1F)C(C#N)c1ccc2ccccc2c1 (mixture of isomers) [Example 1-235]
[2]
  herbicidal activity against a plurality of harmful plants: good herbicidal activity

## COC(=O)CC(c1c(F)cccc1F)C(C#N)c1ccc(F)c(F)c1 (stereo not drawn) [Example 1-11, methyl 4-cyano-3-(2,6-difluorophenyl)-4-(3,4-difluorophenyl)butanoate]
[2]
  herbicidal activity against a plurality of harmful plants: good herbicidal activity

## N#CC(c1ccc(F)c(F)c1)C(CC(=O)O)c1c(F)cccc1F (stereo not drawn) [Example 1-106, 4-Cyano-3-(2,6-difluorophenyl)-4-(3,4-difluorophenyl)butanoic acid]
[1]
  herbicidal activity against a plurality of harmful plants: good herbicidal activity
[2]
  herbicidal activity against a plurality of harmful plants: good herbicidal activity

## COC(=O)CC(c1c(F)cccc1F)C(C#N)c1ccc(F)c(F)c1 (stereo not drawn) [Example 1-230, methyl erythro-4-cyano-3-(2,6-difluorophenyl)-4-(3,4-difluorophenyl)butanoate]
[1]
  herbicidal activity against a plurality of harmful plants: good herbicidal activity
[2]
  herbicidal activity against a plurality of harmful plants: good herbicidal activity

## COC(=O)CC(c1c(F)cccc1F)C(C#N)c1ccc(F)c(F)c1 (stereo not drawn) [Example 1-231, methyl threo-4-cyano-3-(2,6-difluorophenyl)-4-(3,4-difluorophenyl)-butanoate]
[2]
  herbicidal activity against a plurality of harmful plants: good herbicidal activity

## COC(=O)C[C@@H](c1c(F)cccc1F)[C@@H](C#N)c1ccc(F)c(F)c1 [Example 2-11, Methyl (3R,4R)-4-cyano-3-(2,6-difluorophenyl)-4-(3,4-difluorophenyl)-butanoate]
[1]
  herbicidal activity against a plurality of harmful plants: good herbicidal activity
[2]
  herbicidal activity against a plurality of harmful plants: good herbicidal activity

## COC(=O)C[C@@H](c1c(F)cccc1F)[C@@H](C#N)c1ccc(F)c(Cl)c1 [Example 2-15]
[2]
  herbicidal activity against a plurality of harmful plants: good herbicidal activity

## CCOC(=O)C[C@@H](c1c(F)cccc1F)[C@@H](C#N)c1ccc(F)c(F)c1 [Example 2-107, Ethyl (3R,4R)-4-cyano-3-(2,6-difluorophenyl)-4-(3,4-difluorophenyl)-butanoate]
[1]
  herbicidal activity against a plurality of harmful plants: good herbicidal activity
[2]
  herbicidal activity against a plurality of harmful plants: good herbicidal activity

## COC(=O)C[C@@H](c1c(F)cccc1F)[C@@H](C#N)c1ccc(F)c(Br)c1 [Example 2-229]
[1]
  herbicidal activity against a plurality of harmful plants: good herbicidal activity
[2]
  herbicidal activity against a plurality of harmful plants: good herbicidal activity

## COC(=O)C[C@@H](c1c(F)cccc1F)[C@@H](C#N)c1ccc(F)c(C#N)c1 [Example 2-230]
[1]
  herbicidal activity against a plurality of harmful plants: good herbicidal activity
